# Source: PubChem BioAssay AID1259407 (Chemical Carcinogenesis Research Information System (CCRIS), 2018)
# Active and inactive are the calls of the source. The rule behind the calls is not given here.
# Test system: CCRIS mutagenicity, Ames/micronucleus/aberration tests
# Assay: CCRIS mutagenicity studies
# Excerpt: The CCRIS database contains chemical records with carcinogenicity, mutagenicity, tumor promotion, and tumor inhibition test results. It was developed by the National Cancer Institute (NCI). Data are derived from studies cited in primary journals, current awareness tools, NCI reports, and other sources. Test results have been reviewed by experts in carcinogenesis and mutagenesis.
# CCRIS provides historical information from the years 1985 - 2011. It is no longer updated.
# This is an archive assay for CCRIS mutagenicity studies.
# [1] = Test System: AMES SALMONELLA TYPHIMURIUM, Strain/Indicator: TA100, Metabolic Activation: NONE, Method: STANDARD PLATE
# [2] = Test System: AMES SALMONELLA TYPHIMURIUM, Strain/Indicator: TA98, Metabolic Activation: NONE, Method: STANDARD PLATE
# [3] = Test System: AMES SALMONELLA TYPHIMURIUM, Strain/Indicator: TA98, Metabolic Activation: RAT, LIVER, S-9, AROCLOR 1254, Method: STANDARD PLATE
# [4] = Test System: AMES SALMONELLA TYPHIMURIUM, Strain/Indicator: TA100, Metabolic Activation: RAT, LIVER, S-9, AROCLOR 1254, Method: STANDARD PLATE
# [5] = Test System: AMES SALMONELLA TYPHIMURIUM, Strain/Indicator: TA1535, Metabolic Activation: NONE, Method: STANDARD PLATE
# [6] = Test System: AMES SALMONELLA TYPHIMURIUM, Strain/Indicator: TA1535, Metabolic Activation: RAT, LIVER, S-9, AROCLOR 1254, Method: STANDARD PLATE
# [7] = Test System: AMES SALMONELLA TYPHIMURIUM, Strain/Indicator: TA1537, Metabolic Activation: NONE, Method: STANDARD PLATE
# [8] = Test System: AMES SALMONELLA TYPHIMURIUM, Strain/Indicator: TA1537, Metabolic Activation: RAT, LIVER, S-9, AROCLOR 1254, Method: STANDARD PLATE
# [9] = Test System: AMES SALMONELLA TYPHIMURIUM, Strain/Indicator: TA1538, Metabolic Activation: NONE, Method: STANDARD PLATE
# [10] = Test System: AMES SALMONELLA TYPHIMURIUM, Strain/Indicator: TA98, Metabolic Activation: NONE, Method: PREINCUBATION
# [11] = Test System: AMES SALMONELLA TYPHIMURIUM, Strain/Indicator: TA100, Metabolic Activation: NONE, Method: PREINCUBATION
compound,measurement,setting,value
O=C(ON(OCc1ccccc1)C(=O)c1ccccc1)c1ccc(Cl)cc1,mutagenic call,[1],active; positive
same,mutagenic call,"Test System: AMES SALMONELLA TYPHIMURIUM, Strain/Indicator: TA100, Metabolic Activation: RAT, S-9, AROCLOR, Method: STANDARD PLATE",active; positive
O=C1NC(=O)C(Cl)(Cl)C1=C(Cl)Cl,mutagenic call,[1],active; positive
Cn1c([N+](=O)[O-])cnc1C(O)c1cc(C(C)(C)C)cc(C(C)(C)C)c1O (stereo unspecified),mutagenic call,[2],inactive; negative
same,mutagenic call,[3],inactive; negative
same,mutagenic call,[1],inactive; negative
same,mutagenic call,[4],inactive; negative
same,mutagenic call,[5],inactive; negative
same,mutagenic call,[6],inactive; negative
same,mutagenic call,[7],inactive; negative
same,mutagenic call,[8],inactive; negative
same,mutagenic call,[9],inactive; negative
same,mutagenic call,"Test System: AMES SALMONELLA TYPHIMURIUM, Strain/Indicator: TA1538, Metabolic Activation: RAT, LIVER, S-9, AROCLOR 1254, Method: STANDARD PLATE",inactive; negative
Nc1ccc2c(c1)C(=O)c1ccc(N)cc1C2=O,mutagenic call,[2],inactive; negative
same,mutagenic call,[3],active; positive
same,mutagenic call,[1],inactive; negative
same,mutagenic call,[4],inactive; negative
same,mutagenic call,[5],inactive; negative
same,mutagenic call,[6],inactive; negative
same,mutagenic call,[7],inactive; negative
same,mutagenic call,[8],active; positive
same,mutagenic call,[9],inactive; negative
same,mutagenic call,"Test System: AMES SALMONELLA TYPHIMURIUM, Strain/Indicator: TA1978, Metabolic Activation: RAT, LIVER, S-9, AROCLOR 1254, Method: STANDARD PLATE",inactive; negative
O.O.O.O.O.O.[Cl-].[Cl-].[Ni+2],mutagenic call,"End Point: In vitro chromosomal aberrations, Test System: Chinese hamster V79 lung cells, Metabolic Activation: None",inactive; negative
same,mutagenic call,[10],inactive; negative
same,mutagenic call,"Test System: AMES SALMONELLA TYPHIMURIUM, Strain/Indicator: TA98, Metabolic Activation: RAT LIVER S-9, PHENOBARBITAL AND BETA-NAPHTHOFLAVONE, Method: PREINCUBATION",inactive; negative
same,mutagenic call,[11],inactive; negative
same,mutagenic call,"Test System: AMES SALMONELLA TYPHIMURIUM, Strain/Indicator: TA100, Metabolic Activation: RAT LIVER S-9, PHENOBARBITAL AND BETA-NAPHTHOFLAVONE, Method: PREINCUBATION",inactive; negative
same,mutagenic call,"Test System: AMES SALMONELLA TYPHIMURIUM, Strain/Indicator: TA1535, Metabolic Activation: NONE, Method: PREINCUBATION",inactive; negative
same,mutagenic call,"Test System: AMES SALMONELLA TYPHIMURIUM, Strain/Indicator: TA1535, Metabolic Activation: RAT LIVER S-9, PHENOBARBITAL AND BETA-NAPHTHOFLAVONE, Method: PREINCUBATION",inactive; negative
same,mutagenic call,"Test System: AMES SALMONELLA TYPHIMURIUM, Strain/Indicator: TA1537, Metabolic Activation: NONE, Method: PREINCUBATION",inactive; negative
same,mutagenic call,"Test System: AMES SALMONELLA TYPHIMURIUM, Strain/Indicator: TA1537, Metabolic Activation: RAT LIVER S-9, PHENOBARBITAL AND BETA-NAPHTHOFLAVONE, Method: PREINCUBATION",inactive; negative
same,mutagenic call,"Test System: AMES SALMONELLA TYPHIMURIUM, Strain/Indicator: TA1538, Metabolic Activation: NONE, Method: PREINCUBATION",inactive; negative
same,mutagenic call,"Test System: AMES SALMONELLA TYPHIMURIUM, Strain/Indicator: TA1538, Metabolic Activation: RAT LIVER S-9, PHENOBARBITAL AND BETA-NAPHTHOFLAVONE, Method: PREINCUBATION",inactive; negative
same,mutagenic call,"Test System: CHINESE HAMSTER V-79, Strain/Indicator: V-79/(HGPRT), Metabolic Activation: NONE",active; positive
same,mutagenic call,"Test System: E.COLI, Strain/Indicator: WP2UVRA, Metabolic Activation: NONE, Method: PREINCUBATION",inactive; negative
same,mutagenic call,"Test System: E.COLI, Strain/Indicator: WP2UVRA, Metabolic Activation: RAT LIVER S-9, PHENOBARBITAL AND BETA-NAPHTHOFLAVONE, Method: PREINCUBATION",inactive; negative
COP(=S)(OC)Oc1ccc([N+](=O)[O-])c(C)c1,mutagenic call,"End Point: IN VIVO MICRONUCLEUS, Test System: BONE MARROW POLYCHROMATIC ERYTHROCYTES, Species: MOUSE, Strain/Sex: DDY/MALE, Route: IP",inactive; negative
same,mutagenic call,[10],inactive; negative
same,mutagenic call,[2],inactive; negative
same,mutagenic call,"Test System: AMES SALMONELLA TYPHIMURIUM, Strain/Indicator: TA98, Metabolic Activation: RAT LIVER S-9 (10%), Method: PREINCUBATION",inactive; negative
same,mutagenic call,[3],inactive; negative
same,mutagenic call,"Test System: AMES SALMONELLA TYPHIMURIUM, Strain/Indicator: TA98, Metabolic Activation: S-9, NADPH GENERATING SYSTEM, Method: STANDARD PLATE",inactive; negative
same,mutagenic call,[11],inactive; negative
same,mutagenic call,[1],inactive; negative
same,mutagenic call,"Test System: AMES SALMONELLA TYPHIMURIUM, Strain/Indicator: TA100, Metabolic Activation: RAT LIVER S-9 (10%), Method: PREINCUBATION",inactive; negative
same,mutagenic call,[4],inactive; negative
same,mutagenic call,"Test System: AMES SALMONELLA TYPHIMURIUM, Strain/Indicator: TA100, Metabolic Activation: S-9 MIX, Method: STANDARD PLATE",active; positive
same,mutagenic call,"Test System: AMES SALMONELLA TYPHIMURIUM, Strain/Indicator: TA102, Metabolic Activation: NONE, Method: STANDARD PLATE",inactive; negative
same,mutagenic call,"Test System: AMES SALMONELLA TYPHIMURIUM, Strain/Indicator: TA102, Metabolic Activation: S-9, NADPH GENERATING SYSTEM, Method: STANDARD PLATE",inactive; negative
same,mutagenic call,[5],inactive; negative
same,mutagenic call,"Test System: AMES SALMONELLA TYPHIMURIUM, Strain/Indicator: TA1535, Metabolic Activation: S-9, NADPH GENERATING SYSTEM, Method: STANDARD PLATE",inactive; negative
same,mutagenic call,[7],inactive; negative
same,mutagenic call,"Test System: AMES SALMONELLA TYPHIMURIUM, Strain/Indicator: TA1537, Metabolic Activation: S-9, NADPH GENERATING SYSTEM, Method: STANDARD PLATE",inactive; negative
same,mutagenic call,"Test System: AMES SALMONELLA TYPHIMURIUM, Strain/Indicator: YG1021, Metabolic Activation: NONE, Method: PREINCUBATION",inactive; negative
same,mutagenic call,"Test System: AMES SALMONELLA TYPHIMURIUM, Strain/Indicator: YG1021, Metabolic Activation: RAT LIVER S-9 (10%), Method: PREINCUBATION",inactive; negative
same,mutagenic call,"Test System: AMES SALMONELLA TYPHIMURIUM, Strain/Indicator: YG1024, Metabolic Activation: NONE, Method: PREINCUBATION",inactive; negative
same,mutagenic call,"Test System: AMES SALMONELLA TYPHIMURIUM, Strain/Indicator: YG1024, Metabolic Activation: RAT LIVER S-9 (10%), Method: PREINCUBATION",inactive; negative
same,mutagenic call,"Test System: AMES SALMONELLA TYPHIMURIUM, Strain/Indicator: YG1026, Metabolic Activation: NONE, Method: PREINCUBATION",active; positive
same,mutagenic call,"Test System: AMES SALMONELLA TYPHIMURIUM, Strain/Indicator: YG1026, Metabolic Activation: RAT LIVER S-9 (10%), Method: PREINCUBATION",active; positive
same,mutagenic call,"Test System: AMES SALMONELLA TYPHIMURIUM, Strain/Indicator: YG1029, Metabolic Activation: NONE, Method: PREINCUBATION",active; positive
same,mutagenic call,"Test System: AMES SALMONELLA TYPHIMURIUM, Strain/Indicator: YG1029, Metabolic Activation: RAT LIVER S-9 (10%), Method: PREINCUBATION",active; positive
same,mutagenic call,"Test System: AMES SALMONELLA TYPHIMURIUM, Strain/Indicator: YG1041, Metabolic Activation: NONE, Method: PREINCUBATION",active; positive
same,mutagenic call,"Test System: AMES SALMONELLA TYPHIMURIUM, Strain/Indicator: YG1041, Metabolic Activation: RAT LIVER S-9 (10%), Method: PREINCUBATION",active; positive
same,mutagenic call,"Test System: AMES SALMONELLA TYPHIMURIUM, Strain/Indicator: YG1042, Metabolic Activation: NONE, Method: PREINCUBATION",active; positive
same,mutagenic call,"Test System: AMES SALMONELLA TYPHIMURIUM, Strain/Indicator: YG1042, Metabolic Activation: RAT LIVER S-9 (10%), Method: PREINCUBATION",active; positive
